From US20210113524A1, “METHODS OF TREATING MYELOPROLIFERATIVE DISORDERS” (The Henry M. Jackson Foundation for the Advancement of …, priority 2018, published 2021)

Key:
Gata1^low mice [1] = assay: Bone marrow histology and myelofibrosis (reticulin) scoring in Gata1^low mice; type: in vivo, mouse
Description: (§1) All animal handling procedures were performed in compliance with guidelines from the National Research Council for the ethical handling of laboratory animals and were approved by the Uniformed Services University of the Health Sciences Institutional Animal Care and Use Committee. Male and female Gata1^low and wild type CD1 mice were purchased from Jackson Laboratories (Bar Harbor, Me.). Quantitative PCR confirmed low expression of Gata1. The mice were crossed to a CD1 background to establish a line of homozygous mutant mice. Mice were kept in a barrier facility for animals accredited by the Association for Assessment and Accreditation of Laboratory Animal Care International. Mice were housed in groups of four. Animal rooms were maintained at 21±2° C., 50%±10% humidity, and 12-hour light/dark cycle with commercial, freely-available rodent ration (Harlan Teklad Rodent Diet 8604, Frederick, Md., USA).
(§2) HEMATOL. 2010; 38: 270-81. […] 2005; 29: 30-6. Based on previously measured volumes of water consumed per day by the mice, the daily water consumption was determined to be a dose of […] [Davis et al., 2010]. Control animals received acidified water (vehicle) without captopril. Animals were euthanized at 13 months of age.
(§3) Tissues were paraffin blocked and stained using standard methods for hematoxylin and eosin (H&E), Masson's trichrome, and Gomori's reticulin stain by Histoserve (Germantown, Md.). Stained slides were evaluated by a pathologist who was blinded to the identity of the treatment groups and using a published system for scoring myelofibrosis [Kvasnicka, H. M., Problems and pitfalls in grading of bone marrow fibrosis, collagen deposition and osteosclerosis—a consensus-based study, HISTOPATHOLOGY 2016; 68: 905-15]. Bone marrow sections were digitally scanned using the Zeiss Axioscan, and images were produced with Zen Lite software (Carl Zeiss, USA).
To determine the efficacy of captopril in reversing MF, morphologic and phenotypic changes in the Gata1^low mouse model were evaluated. […]

[2] = test system: C57BL/6 mice exposed to 7.9 Gy total body 60Co irradiation; assay: Serum growth factor and cytokine levels (MSD/ELISA) after 7.9 Gy total body irradiation; conditions: 7.9 Gy TBI
Gata1^low mice [3] = assay: qRT-PCR of CD41, CD61, Col1a, Col3a2 mRNA in femur bone marrow of Gata1^low mice; conditions: 72 mg/kg/day captopril, vs untreated mice, p<0.05
Gata1^low mice [4] = assay: Flow cytometry of megakaryocytes in spleen of Gata1^low mice; conditions: captopril treatment, p<0.05
[5] = test system: mice exposed to total body radiation; conditions: mice exposed to total body radiation (Davis et al. 2010); cited from earlier work
Gata1^low mice [6] = assay: Spleen histology and spleen weight in Gata1^low mice; type: in vivo, mouse
Description: as §1, §2, §3
Levels of megakaryocytes and extramedullary hematopoiesis were compared in the spleens of wild-type, untreated Gata1^low, and captopril-treated Gata1^low mice. […]

Gata1^low mice [7] = assay: Flow cytometry of CD115-/CD41+ megakaryocytes in bone marrow of Gata1^low mice; conditions: 72 mg/kg/day captopril from 10 to 12 months, euthanized at 13 months, untreated Gata1^low 1.45%, wild type 0.5%, p<0.05
Gata1^low mice [8] = assay: Peripheral complete blood counts with differentials in Gata1^low mice; type: in vivo, mouse; conditions: 72 mg/kg per day captopril in drinking water from 10 to 12 months, euthanized at 13.5 months
Text: HEMATOL. […] Control animals received acidified water (vehicle) without captopril.
Separate mice were used for each point (n=5-6 per group).
Peripheral blood counts were studied in captopril-treated and untreated Gata1^low mice and their wild-type littermates. […] Complete blood cell counts with differentials were obtained.

Gata1^low mice [9] = assay: qRT-PCR of CD41, CD61, Col1a, Col3a2 mRNA in spleen-derived cells of Gata1^low mice; conditions: captopril treated Gata1^low mice

C[C@H](CS)C(=O)N1CCC[C@H]1C(=O)O [captopril]
megakaryocytic hyperplasia in bone marrow (histology) (Gata1^low mice [1]; captopril for two months (10-12 months of age), evaluated at 13 months, untreated Gata1^low: moderate): only mild megakaryocytic hyperplasia
averaged bone marrow reticulin score (Gata1^low mice [1]; captopril for two months, score out of 3, untreated Gata1^low 1.8, wild type 0): 0.5
severity of bone marrow fibrosis (histology) (Gata1^low mice [1]; captopril in drinking water (79 mg/kg/day) from 10-12 months of age, evaluated at 13 months, vs untreated Gata1^low): reduced the severity off bone marrow fibrosis
increase in serum EPO ([2]; 4 days post-irradiation, captopril 13 mg/kg/day in drinking water, same with or without captopril): ~10 fold
serum EPO level ([2]; 7 days post-irradiation, captopril 13 mg/kg/day, radiation-plus-vehicle 8.66±0.9, mean±SEM): 0.57 ± 0.7 ng/mL
serum EPO level ([2]; 14 days post-irradiation, captopril 13 mg/kg/day, radiation-plus-vehicle 288±140, mean±SEM): 140 ± 24 ng/mL
serum EPO level ([2]; 21 days post-irradiation, captopril vs vehicle irradiated group): similarly elevated
IL-6 levels post-irradiation ([2]; any time points (3-30 days), captopril 13 mg/kg/day): did not significantly suppress
serum EPO level ([2]; by 30 days post-irradiation, captopril-treated animals): declined sharply
radiation induced G-CSF ([2]; days 7 and 14 post-irradiation, captopril 13 mg/kg/day from 48 hours post-irradiation for 14 days, p<0.05 vs vehicle): significantly suppressed
radiation-induced SAA1 levels ([2]; days 7 and 14 post-irradiation, delayed (48 hours) low-dose captopril 13 mg/kg/day, p<0.05 vs vehicle): significantly attenuated
decrease of CD41 marker (qRT-PCR), bone marrow (Gata1^low mice [3]): approximately 3 fold
decrease of CD61 marker (qRT-PCR), bone marrow (Gata1^low mice [3]): ~2 fold
decrease of Col1a expression, bone marrow (Gata1^low mice [3]): approximately 15 fold
decrease of Col3a2 expression, bone marrow (Gata1^low mice [3]): approximately 4 fold
decrease in the frequency of megakaryocytes as a percentage of total live cells, spleen (Gata1^low mice [4]): ~2 fold
blood cell recovery (red blood cells, reticulocytes, platelets) and recovery of colony forming units (CFU-GM, CFU-M, total) [5]: improving blood cell recovery
survival rates [5]: improved survival rates
decrease in splenic weight (Gata1^low mice [6]; captopril for 2 months, vs untreated Gata1^low mice, p<0.05): ~2 fold
extramedullary hematopoiesis in spleen (histology) (Gata1^low mice [6]; captopril for two months, untreated Gata1^low: significant): moderate amounts of extramedullary hematopoiesis
atypical megakaryocytes in spleen (histology) (Gata1^low mice [6]; captopril for two months, vs untreated Gata1^low): reduced numbers of atypical megakaryocytes
number of CD115-/CD41+ megakaryocytes in bone marrow (Gata1^low mice [7]): 0.6 % of total live cells
platelet count (Gata1^low mice [8]): did not ameliorate
eosinophils (Gata1^low mice [8]; vs untreated Gata1^low): normalized
lymphocytes (Gata1^low mice [8]; vs untreated Gata1^low): normalized
neutrophils (Gata1^low mice [8]; vs untreated Gata1^low): normalized
white blood cells (WBC) (Gata1^low mice [8]; vs untreated Gata1^low): normalized
Col3a2 expression (qPCR), spleen (Gata1^low mice [9]): trend toward reduced Col3a2 expression, although this did not reach significance
decrease of CD41 marker (qRT-PCR), spleen (Gata1^low mice [9]; p<0.05): about 6 fold
decrease of CD61 marker (qRT-PCR), spleen (Gata1^low mice [9]; p<0.05): about 5 fold
reduction in the level of Col1a expression (qPCR), spleen (Gata1^low mice [9]; p<0.05): ~4 fold
